The source of these data is patent US8163771B2, “11 β-HSD1 modulators” (Exelixis, Inc., priority 2008, dated 2012).

Where only a bound is given, the exact number is not on record here.

The IC50 is the point on the concentration scale where inhibition reaches its midpoint.

For the assay, the target named is T1, recombinant human 11 β-HSD1 (Homo sapiens, UniProt P28845).
T1 construct: made in house; host or cells: E. coli
T1 sequence (P28845 whole entry): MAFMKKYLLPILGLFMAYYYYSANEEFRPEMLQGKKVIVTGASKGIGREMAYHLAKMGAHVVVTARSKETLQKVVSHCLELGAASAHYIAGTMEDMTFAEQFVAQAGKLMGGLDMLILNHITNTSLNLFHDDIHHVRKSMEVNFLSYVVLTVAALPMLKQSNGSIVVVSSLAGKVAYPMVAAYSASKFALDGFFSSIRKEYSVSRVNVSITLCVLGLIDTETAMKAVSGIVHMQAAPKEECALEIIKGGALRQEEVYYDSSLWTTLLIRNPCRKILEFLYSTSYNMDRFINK
The assay is described as follows: 11 β-HSD1 SPA Assay (Scintillation Proximity Assay). It counts as biochemical. The essentials: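 Scintillation proximity read-out of cortisol formed from 40 nM [3H]cortisone by purified recombinant human enzyme (30-100 nM, E. coli) with 1 mM NADPH, pH7.4, 2 hours at room temperature; beads with cortisol antibody and glycyrrhetinic acid stop the reaction, read next day. IC50 derived from inhibition normalised to background and maximal wells.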
On to `C[C@H](NC(=O)c1ccc(N2C3CCC2CC(NC(=O)C(C)(C)Oc2ccc(C(F)F)cc2Cl)C3)nc1)C(F)(F)F` (stereo partly drawn) [Example 453, 6-[3-endo-({2-[2-chloro-4-(difluoromethyl)phenoxy]-2-methylpropanoyl}amino)-8-azabicyclo[3.2.1]oct-8-yl]-N-[(2S)-1,1,1-trifluoropropan-2-yl]pyridine-3-carboxamide], for which the IC50 was below 200 nM.

Turning to `CC(C)(Oc1ccc(Cl)cc1OC(F)(F)F)C(=O)NC1CC2CCC(C1)N2c1ccc(C(=O)N2CCC(O)C2)cn1` (stereo not drawn) [Example 454, 2-[4-chloro-2-(trifluoromethoxy)phenoxy]-n-(8-{5-[(3-hydroxypyrrolidin-1-yl)carbonyl]pyridin-2-yl}-8-azabicyclo[3.2.1]oct-3-endo-yl)-2-methylpropanamide], the IC50 was below 200 nM.

For the compound `CC(C)(Oc1ccc(Cl)cc1OC(F)(F)F)C(=O)NC1CC2CCC(C1)N2c1ccc(C(=O)N2CCC[C@H]2CO)cn1` (stereo partly drawn) [Example 455, 2-[4-chloro-2-(trifluoromethoxy)phenoxy]-n-[8-(5-{[(2s)-2-(hydroxymethyl)pyrrolidin-1-yl]carbonyl}pyridin-2-yl)-8-azabicyclo[3.2.1]oct-3-endo-yl]-2-methylpropanamide], the IC50 was below 200 nM.

Consider `CC(C)(Oc1ccc(Cl)cc1Cl)C(=O)NC1CC2CCC(C1)N2c1ccc(C(=O)NC[C@H](O)C(F)(F)F)cn1` (stereo partly drawn) [Example 456, 6-(3-endo-{[2-(2,4-dichlorophenoxy)-2-methylpropanoyl]amino}-8-azabicyclo[3.2.1]oct-8-yl)-N-[(2S)-3,3,3-trifluoro-2-hydroxypropyl]pyridine-3-carboxamide], for which the IC50 was below 200 nM.

`CC(C)(Oc1ccc(F)cc1Cl)C(=O)NC1CC2CCC(C1)N2c1ccc(C(=O)NCC(O)C(F)(F)F)cn1` (stereo not drawn) [Example 457, 6-(3-endo-{[2-(2-chloro-4-fluorophenoxy)-2-methylpropanoyl]amino}-8-azabicyclo[3.2.1]oct-8-yl)-N-(3,3,3-trifluoro-2-hydroxypropyl)pyridine-3-carboxamide]: the IC50 is below 200 nM.

Regarding `CC(C)(Oc1ccc(Cl)cc1C(F)(F)F)C(=O)NC1CC2CCC(C1)N2c1ccc(C(=O)NCC(O)C(F)(F)F)cn1` (stereo not drawn) [Example 458, 6-[3-endo-({2-[4-chloro-2-(trifluoromethyl)phenoxy]-2-methylpropanoyl}amino)-8-azabicyclo[3.2.1]oct-8-yl]-N-(3,3,3-trifluoro-2-hydroxypropyl)pyridine-3-carboxamide], the IC50 is below 200 nM.

In the case of `CC(C)(Oc1ccc(F)cc1C(F)(F)F)C(=O)NC1CC2CCC(C1)N2c1ccc(C(=O)NCC(O)C(F)(F)F)cn1` (stereo not drawn) [Example 459, 6-[3-endo-({2-[4-fluoro-2-(trifluoromethyl)phenoxy]-2-methylpropanoyl}amino)-8-azabicyclo[3.2.1]oct-8-yl]-N-(3,3,3-trifluoro-2-hydroxypropyl)pyridine-3-carboxamide], the IC50 is below 200 nM.

As for `CC(C)(Oc1cc(CC(=O)O)c(Cl)cc1Cl)C(=O)N[C@H]1C[C@H]2CC[C@@H](C1)N2c1ccc(C(=O)NCC(F)F)cn1` [Example 460, [2,4-dichloro-5-({1-[(8-{5-[(2,2-difluoroethyl)carbamoyl]pyridin-2-yl}-8-azabicyclo[3.2.1]oct-3-endo-yl)amino]-2-methyl-1-oxopropan-2-yl}oxy)phenyl]acetic acid], the IC50 was below 200 nM.

With `CC(C)(Oc1ccc(Cl)cc1Cl)C(=O)NC1CC2CCC(C1)N2c1ccc(C(=O)N2CC[C@@H](O)C2)cn1` (stereo partly drawn) [Example 461, 2-(2,4-dichlorophenoxy)-n-[8-(5-{[(3r)-3-hydroxypyrrolidin-1-yl]carbonyl}pyridin-2-yl)-8-azabicyclo[3.2.1]oct-3-endo-yl]-2-methylpropanamide], the IC50 is below 200 nM.

Turning to `CC(C)(Oc1ccc(Cl)cc1Cl)C(=O)NC1CC2CCC(C1)N2c1ccc(C(=O)N2CC[C@H](O)C2)cn1` (stereo partly drawn) [Example 462, 2-(2,4-dichlorophenoxy)-N-[8-(5-{[(3s)-3-hydroxypyrrolidin-1-yl]carbonyl}pyridin-2-yl)-8-azabicyclo[3.2.1]oct-3-endo-yl]-2-methylpropanamide], the IC50 is below 200 nM.

Regarding `CC(C)(Oc1ccc(Cl)cc1Cl)C(=O)NC1CC2CCC(C1)N2c1ccc(C(=O)NC(CO)C(F)(F)F)cn1` (stereo not drawn) [Example 463, 6-(3-endo-{[2-(2,4-dichlorophenoxy)-2-methylpropanoyl]amino}-8-azabicyclo[3.2.1]oct-8-yl)-N-(1,1,1-trifluoro-3-hydroxypropan-2-yl)pyridine-3-carboxamide], the half-inhibitory concentration (IC50) was below 200 nM.

`CC(C)(Oc1cc(Cl)c(CO)cc1Cl)C(=O)N[C@H]1C[C@H]2CC[C@@H](C1)N2c1ccc(C(=O)NCC(F)F)cn1` [Example 464, 6-[3-endo-({2-[2,5-dichloro-4-(hydroxymethyl)phenoxy]-2-methylpropanoyl}amino)-8-azabicyclo[3.2.1]oct-8-yl]-N-(2,2-difluoroethyl)pyridine-3-carboxamide]: the IC50 is below 200 nM.

Regarding `CC(C)(Oc1ccc(Cl)cc1C(C)(C)O)C(=O)N[C@H]1C[C@H]2CC[C@@H](C1)N2c1ccc(C(=O)NCC(F)F)cn1` [Example 465, 6-[3-endo-({2-[4-chloro-2-(2-hydroxypropan-2-yl)phenoxy]-2-methylpropanoyl}amino)-8-azabicyclo[3.2.1]oct-8-yl]-N-(2,2-difluoroethyl)pyridine-3-carboxamide], the IC50 is below 200 nM.

`CC(C)(Oc1cc(C(C)(C)O)c(Cl)cc1F)C(=O)N[C@H]1C[C@H]2CC[C@@H](C1)N2c1ccc(C(=O)NCC(F)F)cn1` [Example 466, 6-(3-endo-(2-(4-chloro-2-fluoro-5-(2-hydroxypropan-2-yl)phenoxy)-2-methylpropanamido)-8-azabicyclo[3.2.1]octan-8-yl)-N-(2,2-difluoroethyl)nicotinamide]: the IC50 is below 200 nM.

For `CC(C)(Oc1ccc(F)cc1C(C)(C)O)C(=O)N[C@H]1C[C@H]2CC[C@@H](C1)N2c1ccc(C(=O)NCC(F)F)cn1` [Example 467, N-(2,2-difluoroethyl)-6-(3-endo-(2-(4-fluoro-2-(2-hydroxypropan-2-yl)phenoxy)-2-methylpropanamido)-8-azabicyclo[3.2.1]octan-8-yl)nicotinamide], the IC50 was below 200 nM.

For `CC(C)(Oc1cc(C(C)(C)O)c(F)cc1F)C(=O)N[C@H]1C[C@H]2CC[C@@H](C1)N2c1ccc(C(=O)NCC(F)F)cn1` [Example 468, N-(2,2-difluoroethyl)-6-[3-endo-({2-[2,4-difluoro-5-(2-hydroxypropan-2-yl)phenoxy]-2-methylpropanoyl}amino)-8-azabicyclo[3.2.1]oct-8-yl]pyridine-3-carboxamide], the IC50 is below 200 nM.

With `CC(C)(Oc1ccc(Cl)cc1OC(F)F)C(=O)N[C@H]1C[C@H]2CC[C@@H](C1)N2c1ccc(C(=O)NCC(F)F)cn1` [Example 469, 6-[3-endo-({2-[4-chloro-2-(difluoromethoxy)phenoxy]-2-methylpropanoyl}amino)-8-azabicyclo[3.2.1]oct-8-yl]-N-(2,2-difluoroethyl)pyridine-3-carboxamide], the IC50 is below 200 nM.

`CC(C)(Oc1ccc(Cl)cc1Cl)C(=O)NC1CC2CCC(C1)N2c1ccc(C(=O)NCC(N2CCOCC2)C(F)(F)F)cn1` (stereo not drawn) [Example 470, 6-(3-endo-{[2-(2,4-dichlorophenoxy)-2-methylpropanoyl]amino}-8-azabicyclo[3.2.1]oct-8-yl)-N-[3,3,3-trifluoro-2-(morpholin-4-yl)propyl]pyridine-3-carboxamide]: the IC50 is below 200 nM.
